# Laboratory results as given in patent US6376552B1, “Treatment of gallstones” (Knoll Pharmaceutical Company, priority 1999, dated 2002).
# Tested on: gallstones
# Assay: administration to a patient during weight loss, development of gallstones
# Format: in vivo, human
# Conditions: 10 mg orally once daily in the morning while patient is losing weight
# Procedure: Sibutramine 10 mg orally once daily is administered in the morning during the time a patient is losing weight.
smiles,measurement,value
"CC(C)CC(N(C)C)C1(c2ccc(Cl)cc2)CCC1 (stereo not shown) [Sibutramine, N,N-dimethyl-1-[1-(4-chlorophenyl)cyclobutyl]-3-methylbutylamine]",development of gallstones,does not develop gallstones
